Results as given in patent US20160374944A1, “COMPOSITIONS AND METHODS FOR TREATING AND PREVENTING CANCER BY TARGETING AND INHIBITING CANCER STEM CELLS” (priority 2011, published 2016).

Key:
Pancreatic CSCs [1] = test: gene expression by qRT-PCR; assay type: cell-based, human
Protocol: FIG. 19 is a graph showing the regulation by rottlerin of cMyc, Nanog, Oct-4, and Sox-2 in pancreatic CSCs. Pancreatic CSCs were treated with rottlerin (0-1 μM) for 24 h. The expression of Nanog, Sox-2 and cMyc was measured by qRT-PCR and normalized to GAPDH.
(A) Pancreatic CSCs were treated with rottlerin (0-1 μM) for 24 h. The expression of Patched-1, Smo and Gli-2 was measured by qRT-PCR. […] (B) Pancreatic CSCs were transduced with Gli-responsive GFP/firefly luciferase viral particles (pGreen Fire1-Gli with EF1, System Biosciences). After transduction, culture medium was replaced and CSCs were treated with rottlerin (0-2 μM) for 24 h. Gli-responsive reporter activity was measured using a luciferase assay (Promega Corporation).
(A and B) Induction of apoptosis and activation of caspase-3/-7. Pancreatic CSCs were treated with rottlerin (0-2 μM) for 48 h, and apoptosis and caspase-3/-7 activity were measured by […] and colorometric assay, respectively. […] (C) Pancreatic CSCs were treated with rottlerin (0-1 μM) for 48 h, and the expression of Bcl-2, XIAP and Survivin was measured by qRT-PCR and normalized to GAPDH.
(A and B) Pancreatic CSCs were treated with rottlerin (0-1 μM) for 24 h. The expression of Zeb-1 and Slug was measured by the qRT-PCR and normalized to GAPDH. […] (C) In vitro Matrigel invasion assay. CSCs were plated onto the Matrigel-coated membrane in the top chamber of the transwell and treated with rottlerin (0-2 μM) for 48 h. Cells invaded to the lower chamber were fixed with methanol, stained with crystal violet and photo micrographed.
(A) Regulation of caspase-3/7 activity by EGCG. CSCs were treated with EGCG (0-60 μM) for 24 h, and caspase-3/7 activity was measured as per manufacturer's instructions. […] (B) Regulation of apoptosis by EGCG. CSCs were treated with EGCG (0-60 μM) for 48 h, and apoptosis was measured by TUNEL assay. […] (C) Regulation of apoptosis-related proteins. Pancreatic CSCs were treated with EGCG (0-60 μM) for 36 h. Real time PCR (q-RT-PCR) was performed to examine the expression of Bcl-2, survivin, XIAP, and GAPDH.
[…] At the end of incubation period, cells were harvested and the expression of Nanog, Sox-2, c-Myc and Oct-4 was measured by the q-RT-PCR. […] (B) Nanog shRNA enhances the inhibitory effects of EGCG on CSC's spheroid viability. Pancreatic CSCs were transduced with either scrambled shRNA or Nanog shRNA expressing lentiviral vector (pLKO.1), and cell lysates were collected and western blot analysis was performed using anti-Nanog antibody (data not shown). CSC/scrambled and CSC/Nanog shRNA were seeded as described above and treated with EGCG (0-60 μM). After 7 days, spheroids were collected and cell suspensions were prepared and viable cells were counted by trypan blue assay.
FIG. 40A and FIG. 40C are graphs and photographs showing the inhibition of components of sonic hedgehog pathway, Gli transcription and nuclear translocation by EGCG. (A) Inhibition of components of sonic hedgehog pathway and Gli transcription. Pancreatic CSCs were treated with EGCG (0-60 μM) for 36 h. The expression of Smothened (Smo), patched 1 (PTCH1), patched 2 (PTCH2), was measured by q-RT-PCR. […] (B) Inhibition of Gli1 and Gli2 expression and Gli transcription. Pancreatic CSCs were treated with EGCG (0-60 μM) for 36 h. The expression of Gli1 and Gli2 was measured by q-RT-PCR. Gli reporter activity. CSCs were transduced with Gli-responsive GFP/firefly luciferase viral particles (pGreen Fire1-Gli with EF1, System Biosciences). After transduction, culture medium was replaced and CSCs were treated with EGCG (0-60 μM) for 24 h. Gli-responsive reporter activity was measured by luciferase assay (Promega Corporation). […] (C) EGCG inhibits nuclear translocation of Gli1 and Gli2. Pancreatic CSCs were treated with or without EGCG (40 or 60 μM) for 24 h. At the end of incubation period, CSCs were fixed with paraformaldehyde, permeabilized with titron X100, and blocked with 5% normal goat serum. […]

Pancreatic CSCs [2] = test: spheroid formation and cell viability in spheroids (trypan blue); assay type: cell-based, human; settings: SFN 0-10 μM with or without quercetin 20 μM, 7 days
Prostate CSCs = test: colony formation in soft agar; assay type: cell-based, human; settings: 21 days; embelin 0-6 μM, rottlerin 0-2 μM
Protocol: In particular, embelin is shown to inhibit spheroid and colony formation, and induce caspase-3 and apoptosis. (A) Prostate CSCs were grown in CSC medium and treated with embelin (0-6 μM) for 7 days to obtain primary spheroids. At the end of incubation period, spheroids were collected, reseeded and treated with embelin for another week to obtain secondary spheroids. Cell viability in spheroids was measured by trypan blue assay at the end of 7 and 14 days. […] (B) Prostate CSCs were seeded in soft agar and treated with embelin (0-6 μM) for 21 days. […] (C and D) Activation of caspase-3 and induction of apoptosis is shown.
(A) Prostate CSCs were grown in CSC medium and treated with rottlerin (0-2 μM) for 7 days to obtain primary spheroids. At the end of incubation period, spheroids were collected, reseeded and treated with rottlerin for another week to obtain secondary spheroids. Cell viability in spheroids was measured by trypan blue assay at the end of 7 and 14 days. […] (B) Prostate CSCs were seeded in soft agar and treated with rottlerin (0-2 μM) for 21 days. […] (C and D) Activation of caspase-3 and induction of apoptosis.

Pancreatic CSCs [3] = test: pancreatic CSCs xenografted sub-cutaneously in NSG mice; assay type: in vivo; settings: NOD/SCID/IL2R gamma mice, 20 mg/kg, 6 weeks
Protocol: (A) Pancreatic CSCs were orthotopically implanted in pancreas of NSG mice, and treated with or without sulforaphane 20 mg/kg, for 6 weeks, (B and C) Pancreatic CSCs were xenografted sub-cutaneously in NSG mice, and treated with or without rottlerin and embelin 20 mg/kg, for 6 weeks, (D and E) Prostate CSCs were xenografted sub-cutaneously in NSG mice, and treated with or without rottlerin and embelin 20 mg/kg, for 6 weeks. At the end of the treatment, weights of tumors in treated mice were compared with control mice.

[4] = test system: pancreatic cancer stem cells
[5] = test system: human pancreatic cancer cells
[6] = qRT-PCR, rottlerin 0-1 μM, 24 h
[7] = qRT-PCR, rottlerin 0-1 μM, 48 h

O=C(O[C@@H]1Cc2c(O)cc(O)cc2O[C@@H]1c1cc(O)c(O)c(O)c1)c1cc(O)c(O)c(O)c1 [EGCG, epigallocatechin gallate]
expression of Bcl-2 (Pancreatic CSCs [1]; q-RT-PCR, EGCG 0-60 μM, 36 h): inhibited the expression | expression of Gli1 (Pancreatic CSCs [1]; q-RT-PCR, EGCG 0-60 μM, 36 h): inhibited the expression | expression of Gli2 (Pancreatic CSCs [1]; q-RT-PCR, EGCG 0-60 μM, 36 h): inhibited the expression | expression of Nanog (Pancreatic CSCs [1]; q-RT-PCR, EGCG 0-60 μM, 36 h): inhibited the expression | expression of Oct-4 (Pancreatic CSCs [1]; q-RT-PCR, EGCG 0-60 μM, 36 h): inhibited the expression | expression of Patched-1 (Pancreatic CSCs [1]; q-RT-PCR, EGCG 0-60 μM, 36 h): inhibited the expression | expression of Patched-2 (Pancreatic CSCs [1]; q-RT-PCR, EGCG 0-60 μM, 36 h): inhibited the expression | expression of Sox-2 (Pancreatic CSCs [1]; q-RT-PCR, EGCG 0-60 μM, 36 h): no effect on the expression | expression of XIAP (Pancreatic CSCs [1]; q-RT-PCR, EGCG 0-60 μM, 36 h): inhibited the expression | expression of c-Myc (Pancreatic CSCs [1]; q-RT-PCR, EGCG 0-60 μM, 36 h): inhibited the expression | expression of smoothened (SMO) (Pancreatic CSCs [1]; q-RT-PCR, EGCG 0-60 μM, 36 h): inhibited the expression | expression of survivin (Pancreatic CSCs [1]; q-RT-PCR, EGCG 0-60 μM, 36 h): inhibited the expression | expression of Slug (Pancreatic CSCs [1]; q-RT-PCR, EGCG 0-60 μM, 48 h): inhibited the expression | expression of Snail (Pancreatic CSCs [1]; q-RT-PCR, EGCG 0-60 μM, 48 h): inhibited the expression | expression of ZEB1 (Pancreatic CSCs [1]; q-RT-PCR, EGCG 0-60 μM, 48 h): inhibited the expression

O=c1c(O)c(-c2ccc(O)c(O)c2)oc2cc(O)cc(O)c12 [quercetin]
cell viability in spheroids (Pancreatic CSCs [2]): effective alone

CC(=O)c1c(O)c(C)c(O)c(Cc2c(O)c3c(c(C(=O)/C=C/c4ccccc4)c2O)OC(C)(C)C=C3)c1O [rottlerin]
colony formation in soft agar (Prostate CSCs): inhibited | expression of Gli2 (Pancreatic CSCs [1]; [6]): inhibited the expression | expression of Nanog (Pancreatic CSCs [1]; [6]): inhibited the expression | expression of Patched-1 (Pancreatic CSCs [1]; [6]): inhibited the expression | expression of Slug (Pancreatic CSCs [1]; [6]): inhibited the expression | expression of Smo (Pancreatic CSCs [1]; [6]): inhibited the expression | expression of Sox-2 (Pancreatic CSCs [1]; [6]): inhibited the expression | expression of Zeb-1 (Pancreatic CSCs [1]; [6]): inhibited the expression | expression of cMyc (Pancreatic CSCs [1]; [6]): inhibited the expression | expression of Bcl-2 (Pancreatic CSCs [1]; [7]): inhibited the expression | expression of XIAP (Pancreatic CSCs [1]; [7]): inhibited the expression | expression of survivin (Pancreatic CSCs [1]; [7]): inhibited the expression | tumor growth (weights of tumors vs control mice) (Pancreatic CSCs [3]): inhibit tumor growth

C[S+]([O-])CCCCN=C=S (centres unmarked) [sulforaphane]
growth of pancreatic cancer stem cells [4]: inhibits the growth | growth of human pancreatic cancer cells [5]: inhibits the growth | cell viability in spheroids (Pancreatic CSCs [2]): inhibited the cell viability and colony formation of pancreatic CSCs in a dose-dependent manner
